Results published in patent publication US11446354B2, “Method of treatment” (Hexima Limited, priority 2014, dated 2022).

Experiments:
[1] = format: in vitro ADME, Human
Experimental: Penetration of NaD1 through human nails was measured according to the method of Hui et al. (2002) J Pharm Sci 91(1):189-195. Human toenails were obtained from ScienceCare (USA) and washed with phosphate buffered saline (details, PBS) before being placed on a kimwipe that had been soaked in PBS for 3 h to rehydrate the nail. The nail was then placed in a plastic nail adapter with a dosing area of 0.5×0.5 cm (Permagear, USA) and a cotton bud wetted with 75 microlitres of PBS was placed in the receptor chamber in contact with the underside of the nail.
The cotton bud in contact with the underside of the nail was removed after 24 h and every 24 h following. Protein that had passed through the nail was recovered from the cotton bud by washing twice with 500 μL of 0.1% v/v trifluoroacetic acid. Recovered protein was quantified using RP-HPLC.

[2] = test system: Trichophyton rubrum; experiment: Inhibition of growth of Trichophyton rubrum over 28 days, daily dosing; format: cell-based
Experimental: The inhibitory effect of HXL008 on the growth of Trichophyton rubrum (obtained from the National Mycology Reference Centre, South Australia Pathology at the Women's and Children's Hospital, Adelaide, Australia) was monitored over 28 days.
Spores of T. rubrum, are isolated from sporulating fungus growing on ½ strength Sabouraud dextrose agar. Spores are removed from the plates by the addition of ½ strength potato dextrose broth (PDB). Spore and cell concentrations are measured using a hemocytometer.
Spores were diluted to a concentration of 5×10^4 spores/mL in ½ PBD (2 mL) containing 0, 10 or 50 μg/mL HXL008. Cultures are incubated at 30 C without shaking. After 24 h, 100 μL of each culture is extracted and plated onto ½ SDA plates. An additional 100 uL of ½ PDB is then added containing either 0, 20 or 100 μg of HXL008. SDA plates are then incubated at 30 C for 5 days. This process is repeated every 24 h for 28 days. After 15 days, the culture containing no HXL008 becomes too thick to pipette and is no longer used in the assay.

[3] = test system: Human monocytic lymphoma (U937) cells; format: cell-based
Experimental: Human monocytic lymphoma (U937) cells are cultured in RPMI-1640 medium. All culture media are supplemented with 5-10% v/v fetal calf serum, 100 U/ml of penicillin, and 100 μg/ml of streptomycin. Cell lines are cultured at 37° C. in a humidified atmosphere containing 5% v/v CO2. Adherent cell lines are detached from the flask by adding a mixture containing 0.25% v/v trypsin and […]. A flow cytometry-based propidium iodide (PI) uptake assay is performed to analyze the ability of plant defensins to permeabilize U937 cells (essentially as described in Poon et al, 2014). Briefly, cells are suspended to 1×10^6 cells/ml in 0.1% v/v BSA/RPMI-1640 and incubated with plant defensins (10 μM) at 37° C. for 30 min. Samples are added to PBS containing a final concentration of 1 μg/ml PI and placed on ice. Samples are then analyzed immediately using the BD FACSCanto II Flow Cytometer and BD FACSDiva software v6.1.1. The resultant flow cytometry data is analyzed using FlowJo software v8.8.6. Cells are gated appropriately based on forward scatter and side scatter and cell permeabilization is defined by PI-positive staining.

[4] = test system: Trichophyton rubrum, T. interdigitale, Microsporum fulvum and C. albicans; experiment: Inhibition assays summarised across the range of fungal pathogens; format: cell-based; details: summary of Table 3
Experimental: The inhibitory effects of the plant defensins on the growth of Trichophyton rubrum, T. interdigitale, Microsporum fulvum and C. albicans (obtained from the National Mycology Reference Centre, South Australia Pathology at the Women's and Children's Hospital, Adelaide, Australia) are measured essentially as described by Broekaert et al. (1990) FEMS Microbiol Lett 69:55-59. Spores of T. rubrum, T. interdigitale and M. fulvum are isolated from sporulating fungus growing on 1⁄2 strength Sabouraud dextrose agar (SDA). Spores were removed from the plates by the addition of 1⁄2 strength potato dextrose broth (PDB). C. albicans cells are grown in Yeast Peptone Broth (YPD) for 16 h. Spore and cell concentrations are measured using a hemocytometer. Antifungal assays are conducted in 96 well microtitre plates essentially as herein described. Wells are loaded with 20 μL of filter sterilized (0.22 μm syringe filter, Millipore) defensin (10× stock for each final concentration) or water and 80 μL of 5×10^4 spores/mL (T. rubrum, T, interdigitale, M. fulvum) or 5,000 cells/mL (C. albicans) in 1⁄2 strength PDB. The plates are incubated at 30° C. Fungal growth is assayed by measuring optical density at 595 nm ([…]) using a microtitre plate reader (SpectraMax Pro M2; Molecular Devices. Growth is allowed to proceed until the optical density (OD) of the fungus in the absence of any test defensin reached an OD of 0.2. Each test is performed in duplicate.

[5] = test system: Escherichia coli; experiment: Inhibition of the growth of Escherichia coli; format: cell-based; details: 0.1625-10 μM, 18 hours, 37° C.
Experimental: A single E. coli colony was used to inoculate 5 ml of Luria-Bertani media and grown overnight at 37° C. The following day, the optical density of the culture was measured and the E. coli diluted to an optical density at 600 nm (OD600) of 0.01 in Mueller-Hinton Broth. Diluted E. coli were added to 96-well plates with defensins at concentrations of 10 μM, 5 μM, 2.5 μM, 1.25 μM, 0.625 μM, 0.3125 μM or 0.1625 μM. Plates were read at OD595 to obtain time zero data points. Plates were incubated at 37° C. for 18 hours before reading again at OD595 to assess the amount of E. coli growth.

[6] = test system: clinical isolates of T. rubrum; experiment: Cell survival assay, clinical isolates of T. rubrum plated after 72 h with HXL008; format: cell-based, Trichophyton rubrum; details: 72 h with HXL008 (100 g/mL, 100 μM elsewhere in the source), 5 days at 30° C.
Experimental: FIGS. 3(a) through (e) are photographic representations of surviving colonies of T. rubrum grown on agar plates after treatment with 100 μM HXL008 for 72 h. Panels (a) to (d) represent clinical isolates 14-01, 14-02, 14-03 and 13-04, respectively. Surviving colonies are marked with a black rectangle. Panel (e) represents the growth of T. rubrum that has not been treated with HXL008.
After incubation for 72 h, the media from wells containing clinical isolates of T. rubrum incubated with 100 […] HXL008 was plated onto fresh Sabouraud dextrose agar. Plates were incubated at 30° C. for 5 days to allow colonies to develop before being photographed.

HXL008: Class I plant defensin from Picramnia pentandra, SEQ ID NO: 1 (KVCTKPSKFFKGLCGTDGACTTACRKEGLHSGYCQLKGFLNSVCVCRKHC; HXL008 Picramnia pentandra)
Nail penetration, result in words [1]: able to penetrate nails faster and more effectively than the active ingredients of current topical onychomycosis therapies
Visible growth of T. rubrum in culture ([2]; 10 μg/mL or 50 μg/mL, over the duration of the assay (28 days)): did not display any visible growth
T. rubrum cells killed ([2]; HXL008 50 μg/mL, within 24 h): more than 80%
Surviving colonies per plate ([2]; after 20 days of treatment, 100 μL plated): 0 or only 1
U937 cells permeabilized (PI-positive) [3]: less than 2%
Antifungal activity across the range of fungal pathogens, result in words [4]: most effective plant defensins across the range of fungal pathogens
Growth of E. coli in the presence of defensin [5]: did not inhibit growth of E. coli at the concentrations tested
Surviving colonies on agar plates after incubation with HXL008 [6]: 1-3 colonies
